Common to all, as to type: biochemical
One assay deals with T1, Ab1 (h) (Homo sapiens, UniProt P00519).
T1 construct: purchased Eurofins
Kind of assay: Radioisotope labeling kinase assay (Eurofins), Ab1. The following applies: 1 μM compound; read-out: Inhibitory activity per unit concentration/Activity % Ab1 (h). As to the method:
(§1) An activity to a human recombinant protein kinase of a series of compounds was determined by a radioisotope labeling method, which was provided by Eurofins Company. A compound to be detected was mixed with a corresponding protein kinase buffer (20 mM propyl sulfonate (MOPS, […].), 1 mM EDTA, 0.10 β-mercaptoethanol, 0.010 Brij-35, […], and 1 mg/mL BSA), the mixture was added into a reaction system (100 μM reaction substrate […], 8 mM MOPS with a pH value of 7.0, 10 mM MgAcetate, 0.2 mM EDTA, and a certain concentration of γ-^33P-ATP). After adding an MgATP composite solution, the reaction was started at room temperature for 40 minutes, and the reaction was terminated by adding 5 μl of […] solution. Then, 10 μl of reaction solution was dropwise added onto a filter and washed with 75 mM phosphoric acid solution for three times, 5 minutes each time, then washed with methanol once again, and dried and subjected to scintillation counting.

The target in a further assay is T2, BTK (h) (Homo sapiens, UniProt Q06187).
T2 construct: purchased Eurofins
Nature of the assay: Radioisotope labeling kinase assay (Eurofins), BTK. The following applies: 1 μM compound; read-out: Inhibitory activity per unit concentration/Activity % BTK (h). The procedure:
as §1

The next assay addresses T3, Flt3 (D835Y) (h) (Homo sapiens, UniProt P36888, D835Y).
T3 construct: purchased Eurofins
T3 sequence (P36888 27-993 D835Y): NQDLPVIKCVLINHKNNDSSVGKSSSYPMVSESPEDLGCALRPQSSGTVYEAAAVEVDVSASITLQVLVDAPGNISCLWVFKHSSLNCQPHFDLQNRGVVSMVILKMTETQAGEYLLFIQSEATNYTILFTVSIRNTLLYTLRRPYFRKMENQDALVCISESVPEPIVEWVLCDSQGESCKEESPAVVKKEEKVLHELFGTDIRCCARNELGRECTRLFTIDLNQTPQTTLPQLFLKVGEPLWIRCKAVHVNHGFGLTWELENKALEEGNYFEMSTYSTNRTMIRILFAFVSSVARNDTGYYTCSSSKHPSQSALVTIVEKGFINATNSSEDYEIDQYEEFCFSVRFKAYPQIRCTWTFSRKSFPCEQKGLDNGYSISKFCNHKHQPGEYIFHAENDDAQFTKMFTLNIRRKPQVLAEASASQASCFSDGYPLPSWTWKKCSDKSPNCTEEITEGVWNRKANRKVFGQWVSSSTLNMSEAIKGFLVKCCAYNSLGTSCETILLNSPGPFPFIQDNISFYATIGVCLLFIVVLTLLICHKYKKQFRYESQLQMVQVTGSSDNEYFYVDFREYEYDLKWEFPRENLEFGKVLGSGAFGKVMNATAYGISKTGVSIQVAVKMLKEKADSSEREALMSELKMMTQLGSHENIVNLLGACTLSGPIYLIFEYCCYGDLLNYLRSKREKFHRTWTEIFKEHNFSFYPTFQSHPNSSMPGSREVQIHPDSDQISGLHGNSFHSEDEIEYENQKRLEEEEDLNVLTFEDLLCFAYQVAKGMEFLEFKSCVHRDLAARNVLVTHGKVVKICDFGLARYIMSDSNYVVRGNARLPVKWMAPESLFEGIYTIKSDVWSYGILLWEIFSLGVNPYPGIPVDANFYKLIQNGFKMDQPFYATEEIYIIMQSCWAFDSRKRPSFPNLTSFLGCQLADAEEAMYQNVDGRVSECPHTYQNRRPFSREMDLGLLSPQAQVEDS
Nature of the assay: Radioisotope labeling kinase assay (Eurofins), Flt3 (D835Y). The following applies: 1 μM compound; read-out: Inhibitory activity per unit concentration/Activity % Flt3 (D835Y) (h). The procedure:
as §1

In the next assay the target is T4, Flt3 (h) (Homo sapiens, UniProt P36888).
T4 construct: purchased Eurofins
T4 sequence (P36888 27-993): T3 sequence (P36888 27-993 D835Y) with Y809D
Kind of assay: Radioisotope labeling kinase assay (Eurofins), Flt3. The following applies: 1 μM compound; read-out: Inhibitory activity per unit concentration/Activity % Flt3 (h). As to the method:
as §1

The target of another assay is T5, JAK3 (h) (Homo sapiens, UniProt P52333).
T5 construct: purchased Eurofins
T5 sequence (P52333 1-1124): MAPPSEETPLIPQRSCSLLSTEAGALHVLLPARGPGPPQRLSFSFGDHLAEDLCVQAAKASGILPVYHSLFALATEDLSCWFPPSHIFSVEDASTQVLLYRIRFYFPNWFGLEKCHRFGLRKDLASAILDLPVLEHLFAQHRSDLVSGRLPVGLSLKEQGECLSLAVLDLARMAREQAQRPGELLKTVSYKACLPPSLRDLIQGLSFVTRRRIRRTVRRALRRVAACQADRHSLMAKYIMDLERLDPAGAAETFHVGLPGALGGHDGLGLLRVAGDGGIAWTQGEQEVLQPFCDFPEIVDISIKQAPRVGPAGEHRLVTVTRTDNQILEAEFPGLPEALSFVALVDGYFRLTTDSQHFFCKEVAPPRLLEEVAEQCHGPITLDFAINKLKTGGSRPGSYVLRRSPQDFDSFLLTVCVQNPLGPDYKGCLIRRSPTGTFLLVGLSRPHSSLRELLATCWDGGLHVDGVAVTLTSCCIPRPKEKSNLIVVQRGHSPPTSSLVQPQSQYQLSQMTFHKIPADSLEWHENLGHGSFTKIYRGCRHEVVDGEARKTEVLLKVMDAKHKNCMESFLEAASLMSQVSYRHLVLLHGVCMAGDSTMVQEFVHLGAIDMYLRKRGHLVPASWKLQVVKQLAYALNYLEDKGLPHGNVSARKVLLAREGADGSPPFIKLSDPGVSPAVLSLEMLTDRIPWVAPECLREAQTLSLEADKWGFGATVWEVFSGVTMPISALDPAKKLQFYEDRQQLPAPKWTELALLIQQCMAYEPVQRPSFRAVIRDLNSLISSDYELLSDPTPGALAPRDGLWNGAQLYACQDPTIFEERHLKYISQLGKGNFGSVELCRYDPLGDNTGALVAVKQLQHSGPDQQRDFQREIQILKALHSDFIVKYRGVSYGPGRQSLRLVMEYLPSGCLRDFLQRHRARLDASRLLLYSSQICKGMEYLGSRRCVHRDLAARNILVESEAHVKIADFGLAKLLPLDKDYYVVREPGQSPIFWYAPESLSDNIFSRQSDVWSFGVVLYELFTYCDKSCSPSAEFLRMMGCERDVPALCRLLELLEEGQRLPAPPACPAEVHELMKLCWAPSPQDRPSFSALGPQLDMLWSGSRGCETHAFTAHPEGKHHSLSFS
Kind of assay: Radioisotope labeling kinase assay (Eurofins), JAK3. The following applies: 1 μM compound; read-out: Inhibitory activity per unit concentration/Activity % JAK3 (h). The procedure:
as §1

Numbering of substitutions follows the chain as printed.

T1 sequence (P00519 whole entry): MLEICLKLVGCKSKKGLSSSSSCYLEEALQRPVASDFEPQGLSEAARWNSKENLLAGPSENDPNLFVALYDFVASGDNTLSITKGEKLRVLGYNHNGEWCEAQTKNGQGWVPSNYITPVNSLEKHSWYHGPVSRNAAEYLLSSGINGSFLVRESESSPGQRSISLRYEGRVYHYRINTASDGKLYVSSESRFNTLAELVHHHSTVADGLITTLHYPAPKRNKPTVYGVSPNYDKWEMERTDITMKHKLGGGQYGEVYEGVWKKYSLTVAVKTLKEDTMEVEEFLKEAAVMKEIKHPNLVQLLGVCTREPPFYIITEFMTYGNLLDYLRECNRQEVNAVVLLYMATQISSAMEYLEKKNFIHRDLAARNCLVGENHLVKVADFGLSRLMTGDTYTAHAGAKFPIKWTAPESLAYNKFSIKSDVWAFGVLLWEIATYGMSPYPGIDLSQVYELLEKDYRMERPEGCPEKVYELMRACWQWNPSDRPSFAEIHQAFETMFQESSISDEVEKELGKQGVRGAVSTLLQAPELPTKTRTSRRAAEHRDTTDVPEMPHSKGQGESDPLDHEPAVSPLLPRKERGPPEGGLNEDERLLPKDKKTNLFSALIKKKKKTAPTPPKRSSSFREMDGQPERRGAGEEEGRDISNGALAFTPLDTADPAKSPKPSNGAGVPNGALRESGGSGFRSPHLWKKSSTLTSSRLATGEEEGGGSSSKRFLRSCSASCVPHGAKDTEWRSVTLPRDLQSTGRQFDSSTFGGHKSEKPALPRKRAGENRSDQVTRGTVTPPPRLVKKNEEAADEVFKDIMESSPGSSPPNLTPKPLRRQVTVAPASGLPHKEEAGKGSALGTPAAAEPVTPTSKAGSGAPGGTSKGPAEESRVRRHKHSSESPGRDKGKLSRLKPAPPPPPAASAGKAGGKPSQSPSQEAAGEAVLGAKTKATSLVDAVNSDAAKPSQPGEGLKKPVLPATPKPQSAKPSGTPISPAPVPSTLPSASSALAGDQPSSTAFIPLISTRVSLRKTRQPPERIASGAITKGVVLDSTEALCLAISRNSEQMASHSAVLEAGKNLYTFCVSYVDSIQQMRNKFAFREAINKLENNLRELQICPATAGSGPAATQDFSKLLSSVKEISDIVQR
T2 sequence (Q06187 whole entry): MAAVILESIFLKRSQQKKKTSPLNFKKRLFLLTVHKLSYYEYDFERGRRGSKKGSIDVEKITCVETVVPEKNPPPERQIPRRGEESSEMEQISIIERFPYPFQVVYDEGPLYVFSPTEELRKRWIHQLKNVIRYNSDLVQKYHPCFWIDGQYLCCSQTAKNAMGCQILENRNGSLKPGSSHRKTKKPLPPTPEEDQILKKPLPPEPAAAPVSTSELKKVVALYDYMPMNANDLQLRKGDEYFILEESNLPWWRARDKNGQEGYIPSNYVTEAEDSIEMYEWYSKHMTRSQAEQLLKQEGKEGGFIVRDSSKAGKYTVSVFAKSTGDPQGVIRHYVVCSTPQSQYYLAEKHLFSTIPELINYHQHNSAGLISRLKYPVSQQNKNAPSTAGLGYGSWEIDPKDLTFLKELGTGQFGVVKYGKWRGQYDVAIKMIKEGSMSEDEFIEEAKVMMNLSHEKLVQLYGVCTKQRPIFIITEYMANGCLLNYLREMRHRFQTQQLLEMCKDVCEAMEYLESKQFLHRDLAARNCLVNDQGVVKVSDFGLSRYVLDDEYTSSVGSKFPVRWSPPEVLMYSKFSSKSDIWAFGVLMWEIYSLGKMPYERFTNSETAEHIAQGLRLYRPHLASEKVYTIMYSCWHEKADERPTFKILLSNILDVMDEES

For `O=C(/C=C/COc1cc2cc(c1)Nc1nccc(n1)-c1cccc(c1)COC/C=C/COC2)N1CCCC1` [XVI-13], the activity at 1 µM on Ab1 (h) was 39%; on BTK (h), 49%; on Flt3 (D835Y) (h), -2%; on Flt3 (h), 24%; at JAK3 (h), 34%.

Turning to `O=C(/C=C/C(F)(F)F)Nc1cc2cc(c1)Nc1nccc(n1)-c1cccc(c1)COC/C=C/COC2` [XVI-5], the activity at 1 µM at Ab1 (h) was determined as 57%; on BTK (h) it was 88%; at Flt3 (D835Y) (h), 7%; on Flt3 (h) it was 17%; at JAK3 (h) it was 75%.

On to `C1=C/COCc2ccc(OC/C=C/CN3CCOCC3)c(c2)Nc2nccc(n2)-c2cccc(c2)COC/1` [XVI-23], for which the activity at 1 µM at Ab1 (h) amounted to 85%; on BTK (h), 90%; on Flt3 (D835Y) (h), 27%; on Flt3 (h) it was 78%; on JAK3 (h) it was 10%.

Turning to `O=C(C#CCN1CCOCC1)Nc1cc2cc(c1)Nc1nccc(n1)-c1cccc(c1)COC/C=C/COC2` [XVII-3], the activity at 1 µM worked out at 8% at Ab1 (h); 17% on BTK (h); 0% on Flt3 (D835Y) (h); 2% at Flt3 (h); 14% at JAK3 (h).

For the compound `CN1CCC(NC(=O)/C=C/COc2ccc3cc2Nc2nccc(n2)-c2cccc(c2)COC/C=C/COC3)C1` (centres unmarked) [XVI-24], the activity at 1 µM on Ab1 (h) was found to be 81%; at BTK (h) it was 86%; at Flt3 (D835Y) (h), 50%; at Flt3 (h), 82%; on JAK3 (h), 88%.

Turning to `CCCC#CC(=O)Nc1cc2cc(c1)Nc1nccc(n1)-c1cccc(c1)COC/C=C/COC2` [XVII-2], the activity at 1 µM was 13% at Ab1 (h); 36% at BTK (h); -1% at Flt3 (D835Y) (h); 5% on Flt3 (h); 36% at JAK3 (h).

In the case of `O=C(/C=C/CNC1CCOC1)Nc1cc2cc(c1)Nc1nccc(n1)-c1cccc(c1)CCC/C=C/COC2` (centres unmarked) [XVI-19], the activity at 1 µM at Ab1 (h) was 2%; on BTK (h), 17%; on Flt3 (D835Y) (h), -3%; at Flt3 (h) it was 23%; at JAK3 (h), 6%.

`C1=C/COCc2ccc(OC/C=C/CN3CCCC3)c(c2)Nc2nccc(n2)-c2cccc(c2)COC/1` [XVI-20]: the activity at 1 µM was 85% on Ab1 (h); 90% at BTK (h); 33% on Flt3 (D835Y) (h); 91% on Flt3 (h); 97% at JAK3 (h).

`CN1C/C=C/COCc2cccc(c2)-c2ccnc(n2)Nc2cc(cc(NC(=O)/C=C/c3cnc[nH]3)c2)C1` [XVI-32]: the activity at 1 µM at Ab1 (h) worked out at 50%; on BTK (h) it was 82%; at Flt3 (D835Y) (h), 0%; on Flt3 (h), 5%; at JAK3 (h), 30%.

As for `CN1C/C=C/COCc2cccc(c2)-c2ccnc(n2)Nc2cc(cc(NC(=O)/C=C/CN3CCOCC3)c2)C1` [XVI-30], the activity at 1 µM at Ab1 (h) turned out to be 55%; at BTK (h), 66%; on Flt3 (D835Y) (h), 2%; at Flt3 (h) it was 7%; at JAK3 (h), 61%.

Regarding `O=C(/C=C/COc1ccc2cc1Nc1nccc(n1)-c1cccc(c1)COC/C=C/COC2)N1CCCC1` [XVI-21], the activity at 1 µM is 92% at Ab1 (h); 78% on BTK (h); 44% at Flt3 (D835Y) (h); 82% at Flt3 (h); 95% on JAK3 (h).

Regarding `CN1C/C=C/COCc2cccc(c2)-c2ccnc(n2)Nc2cc(cc(NC(=O)/C=C/CN3CCCC3)c2)C1` [XVI-25], the activity at 1 µM on Ab1 (h) was found to be 35%; on BTK (h) it was 64%; at Flt3 (D835Y) (h), 0%; at Flt3 (h), 6%; on JAK3 (h) it was 83%.

As for `O=C(/C=C/C(=O)N1CCCC1)Nc1cc2cc(c1)Nc1nccc(n1)-c1cccc(c1)COC/C=C/COC2` [XVI-33], the activity at 1 µM on Ab1 (h) came out at 38%; on BTK (h) it was 86%; at Flt3 (D835Y) (h), 10%; on Flt3 (h) it was 2%; on JAK3 (h) it was 17%.
